Measured values reported in patent publication US20240366535A1, “FORMULATION WITH IMPROVED BIOAVAILABILITY” (MERRY LIFE BIOMEDICAL COMPANY, LTD., priority 2023, published 2024).

Assays:
[1] = Dissolution test in medium simulating gastric juice (0.1N HCl), 30 min; assay type: physicochemical; settings: Medium 0.1N HCl
Protocol: (§1) Dissolution Test in 0.1 HCl and pH 6.8 Phosphate Buffer, 30 Min
(§2) The dissolution of TML-6 (API alone) and TML-6 formulations (E01 to E12) were measured in mediums simulating gastric juice for 30 mins, and the results are as shown in Table 5 and 6. The dissolution of TML-6 (API alone) and TML-6 formulations (E13 to E17) were measured in mediums simulating intestinal juice for 30 mins, and the results are as shown in Table 6.

[2] = Dissolution test in medium simulating intestinal juice (pH 6.8 phosphate buffer), 30 min; assay type: physicochemical; settings: Medium pH 6.8 Phosphate Buffer
Protocol: as §1, §2

[3] = Pharmacokinetics (PK) studies in rats, single oral dose; assay type: in vivo; settings: male, Sprague-Dawley, TML-6 in rat plasma, 25.0 mg/kg single dose, 0.5% MC suspension
Protocol: The objective of this study is to obtain the pharmacokinetic profiles of TML-6 API (unformulated, crystalline), TML-6 formulation E02 (crystalline) and TML-6 formulations E10, E12 and E13 (amorphous) though oral (PO) doses when administrated to 6-8 week old male Sprague-Dawley rats (BioLASCO Taiwan Co. Ltd). A study design of five doses on rats. Animals received a single dose of TML-6 API, TML-6 formulations E02, E10, E12 and E13 at 25 mg/kg via oral gavage.
Dosing Solution Preparation: The TML-6 API, E02, E10, E12 and E13 oral formulations were prepared by suspending these TML6 formulated powder in the aqueous vehicle composed of 0.5% methylcellulose (MC) to the concentration of 2.5 mg/mL TML-6, respectively.
Plasma Sample Preparation and Bioanalysis Serial blood samples were collected from all animals through the tail veins. Approximately 0.2 mL blood samples were collected at each following time points: predose and 0.083, 0.25, 0.5, 1, 2, 4, 6, 8, 10 and 24 hours post-dose. Separation of plasma was prepared by centrifugation (1,000×g for 15 minutes at 4° C.) after blood sampling. Concentrations of TML-6 in rat plasma were determined by liquid chromatography-tandem mass spectrometry (LC-MS/MS), as shown in FIGS. 6 and 7. The lower limit of quantification (LLOQ) was 0.1 ng/mL. […]

SMILES: CCN(CC)C(=O)CC(C)(C(=O)/C=C/c1ccc(OC)c(OC)c1)C(=O)/C=C/c1ccc(OC)c(OC)c1 [API alone]
- Dissolution within 30 min [1]: 0.1%
- Dissolution within 30 mins [2]: 0.06%
- AUC(0-inf) [3]: 73.6 ng·h/mL
- Cmax [3]: 25.3 ng/mL
